Laboratory results taken from patent publication US9168269B2, “Inhibitors of long and very long chain fatty acid metabolism as broad spectrum anti-virals” (THE TRUSTEES OF PRINCETON UNIVERSITY, priority 2010, dated 2015).
pIC50: −log10 of the molar value. Read-outs that look alike come from different tables or passages of the source.

Legend:
HCMV AD169 strain = experiment: microbe, parasite or virus in culture; format: cell-based, human cytomegalovirus; conditions: for reduction of HCMV viral yield: 96 h post infection; for effect on HCMV replication / yield, in words: concentrations as in the sentence or figure; for decrease in HCMV virus titer: 96 h after infection
adenovirus type 5 = experiment: adenovirus replication in fibroblasts; format: cell-based; conditions: for decrease in adenovirus replication / titer: MOI 1, 72 h; for effect on adenovirus replication, in words: indicated amounts of drug
ACAT = conditions: cited from earlier work
Liquid Droplet = conditions: read-out: Liquid Droplet inhibition IC50; cited from earlier work
Liver ACAT = conditions: cited from earlier work
late viral protein pUL99 = experiment: HCMV late viral protein expression (pUL99-GFP); format: cell-based, human cytomegalovirus
hELOVL3 = hELOVL3 (Homo sapiens, UniProt Q9HB03); conditions: in vitro; cited from earlier work
Chain of hELOVL3 (Q9HB03 whole entry): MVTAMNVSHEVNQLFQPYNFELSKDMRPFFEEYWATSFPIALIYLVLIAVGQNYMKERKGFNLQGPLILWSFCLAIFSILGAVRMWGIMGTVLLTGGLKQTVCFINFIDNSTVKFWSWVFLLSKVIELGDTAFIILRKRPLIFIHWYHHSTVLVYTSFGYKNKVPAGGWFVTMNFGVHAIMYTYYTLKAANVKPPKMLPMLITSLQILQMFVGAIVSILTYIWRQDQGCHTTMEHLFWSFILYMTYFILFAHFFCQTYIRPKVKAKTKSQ

[1] = mice, oral, 10 mg/kg, 2 hours after treatment; cited from earlier work
MRCS human fibroblasts = experiment: host cell viability, morphology and toxicity in fibroblasts; conditions: for appearance of cells: 96 h
Protocol: Top panels: About 90% confluent MRCS human fibroblasts were treated with the indicated concentrations of triacsin C or the carrier in which the drug was dissolved (DMSO) in the presence of 10% fetal calf serum and photographed 96 h later. Bottom left panel: About 90% confluent MRCS fibroblasts were either mock infected or infected with the AD169 strain of HCMV at a multiplicity of (0.1 pfu/cell). The uninfected or infected cells received DMSO (solvent for the drug) or the drug for 96 h before cells were assayed for viability. Bottom right panel: About 90% confluent MRCS fibroblasts were infected with HCMV at a multiplicity of (0.1 pfu/cell) in the presence of DMSO (0 nM triacsin C) or triacsin C at the indicated concentrations. Infected fibroblasts were maintained in medium containing 10% fetal calf serum. Virus yield in the medium at 96 h after infection was determined by infecting fibrobalsts and assaying IE1 expression by immunofluorescence 24 h later. 96 h after infection, cells were harvested into culture medium and sonicated to release cell-associated virus. Virus yield in the medium was determined by infecting fibroblasts and assaying IE1 expression by immunofluorescence 24 h later.
The effect of triacsin C on the viability of MRCS human fibroblasts in culture medium containing 10% fetal calf serum was tested. At the time drug was added, cells were about 90% confluent.

[2] = test system: lipid droplets in HCMV infected cells; experiment: lipid droplets by oil red O staining; format: cell-based, human
Excerpt: A pair of related enzymes that are both required for HCMV replication are ADP-ribosyltransferase 1 and 3 (ART1 and ART3). Inhibition of either of these enzymes led to a marked reduction in HCMV replication, ˜40-fold for ART1 and ˜10-fold for ART3. Without being bound by any particular mechanism, although ADP-ribosyltransfer is not per se a reaction of lipid metabolism, ADP ribosylation plays a key role in regulating lipid storage via targets including the protein CtBP1/BARS. Mono-ADP ribosylation of this protein results in loss of lipid droplets due to a dramatic efflux of fatty acids.
Thus host cell components involved in lipid droplet production and consumption provide antiviral targets. In addition to siRNA against the relevant cellular machinery, other means of inhibiting lipid droplet formation include the compounds spylidone, PF-1052 (a fungal natural product isolated from Phoma species), vermisporin, beauveriolides, phenochalasins, isobisvertinol, K97-0239, and rubimaillin.
Lipid droplet formation and depletion is associated with HCMV infection. At early phase of infection (2-12 hours after infection) lipid droplets are induced within the infected cells and thereafter, a complete loss of lipid droplets is observed (48-72 hours after infection).

HSV-1 = HSV-1 replication in fibroblasts; format: cell-based, herpes simplex virus type 1; conditions: for effect on HSV-1 growth, in words: indicated amounts of drug
[3] = test system: influenza A strain WSN/33; experiment: influenza A replication in fibroblasts; format: cell-based; conditions: for effect on influenza A growth, in words: indicated amounts of drug
[4] = test system: HCV JFH1 strain derivative; experiment: release of infectious HCV from Huh7.5 cells, TCID50 assay
Protocol: Huh7.5 cells were infected with a derivative of HCV JFH1 strain (MOI=0.1 TCID50/cell). Infected cells were maintained in medium containing 10% fetal calf serum plus DMSO (0 nM triacsin C) or triacsin C at the indicated concentrations. Media were harvested at 72 h and infectious virus was quantified by standard TCID50 assay on Huh7.5 cells.
Virus yield in the medium at 72 h after infection was determined.
Huh7.5 cells were infected a derivative of HCV JFH1 strain (MOI=0.1 TCID50/cell) Infected cells were maintained in medium containing 10% fetal calf serum plus DMSO (0 μg/ml TOFA) or TOFA at the indicated doses. Media were harvested at 72 h and infectious virus was quantified by standard TCID50 assay on Huh7.5 cells.
Huh7.5 cells which was infected with HCV and treated with indicated amounts of TOFA (FIG. 21).

hELOVL6 = target: T1, hELOVL6 (Homo sapiens, UniProt Q9H5J4); conditions: in vitro, cited from earlier work
T1 sequence (Q9H5J4 1-265): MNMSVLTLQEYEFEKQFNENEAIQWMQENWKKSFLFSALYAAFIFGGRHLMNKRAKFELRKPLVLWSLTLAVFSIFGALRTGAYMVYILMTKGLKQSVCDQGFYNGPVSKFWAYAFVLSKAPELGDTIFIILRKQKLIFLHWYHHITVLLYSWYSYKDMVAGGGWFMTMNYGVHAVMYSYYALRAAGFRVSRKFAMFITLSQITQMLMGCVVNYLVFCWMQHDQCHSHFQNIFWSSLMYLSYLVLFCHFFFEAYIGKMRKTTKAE

[5] = test system: triacylglycerol (TG) synthesis; conditions: cited from earlier work
[6] = test system: cholesterol ester (CE) synthesis; conditions: cited from earlier work
ACSLs = conditions: rat liver cell sonicates; cited from earlier work
atherosclerosis = conditions: oral, 10 mg/kg/day, two months, cited from earlier work
HCMV = experiment: siRNA screen, infectious yield of HCMV; conditions: enzyme knockdown by siRNA; fibroblasts, HCMV 0.1 pfu/cell, 96 h
Protocol: To identify host cell enzymes whose inhibition could decrease the production of virus progeny, an siRNA screen was performed to test for roles of specific enzymes involved directly or indirectly in lipid metabolism. The siRNA screen was designed to test for effects of inhibiting specific siRNA targets on the infectious yield of HCMV. The screen was performed in 96-well plates using a portion of an siRNA library purchased from Sigma. Each target was assayed with three different siRNAs.
Also at 96 h after infection, the medium was removed from each well and used to infect fibroblasts in a new 96-well plate, and infectivity was quantified by staining for immunofluorescence and counting IE1-positive cells 24 h later.

Protocol for MDCK cells: Bottom panel: Approximately 90% confluent MDCK cells were infected with WSN/33 at a multiplicity of (0.001 pfu/cell) in the presence of PBS (0 mM) or AOAA at the indicated concentrations. Virus yield in the medium at indicated times after infection was determined by standard plaque assay on MDCK cells.
Replication of influenza A (WSN/33 strain) was measured in MDCK cells at a multiplicity of infection of 0.001 particle forming unit per cell.

## NOCC(=O)O [AOAA, aminooxyacetic acid]
HCMV AD169 strain; 0.5 mM
  decrease in HCMV replication: 100 fold
Adenovirus type 5; 0.5 mM
  decrease in adenovirus replication / titer: 20 fold
Adenovirus type 5; 1 mM
  decrease in adenovirus replication / titer: 500 fold
MDCK cells
  host cell toxicity by light microscopy: no evidence of host cell toxicity

## CC(C)c1cc(C(C)C)c(CC(=O)NS(=O)(=O)Oc2c(C(C)C)cccc2C(C)C)c(C(C)C)c1 [Avasimibe]
ACAT
  pIC50: 6.32

## CCCCCCCN(Cc1ccc(CCC(C)C)cc1)C(=O)Nc1c(F)cc(F)cc1F [CL-283,546]
Liquid Droplet
  pIC50: 7.46

## COc1cccc(C2(CNC(=O)Nc3c(C(C)C)cc(N)cc3C(C)C)CCN(c3ccccc3C)CC2)c1 [Compound 12g]
ACAT
  pIC50: 7.17

## Cc1cc(NC(=O)[C@@H]2Cc3ccc(N(C)C)cc3CN2C(=O)C(C)C)c(C)c(C)c1O [Compound 21]
Liver ACAT
  pIC50: 6.95

## Cc1[nH]n(-c2ccc(OC(F)(F)F)cc2)c(=O)c1C1(C(F)(F)F)C(=O)N(c2ccccc2)C2=C1C(=O)CC(C)(C)C2 (stereo not drawn) [Compound 37]
HCMV AD169 strain; 35 μM
  inhibition of HCMV replication: > 10 fold
HCMV AD169 strain; 70 μM
  HCMV virus yield: undetectable levels
Late viral protein pUL99
  HCMV late pUL99 expression, in words: substantially reduced
hELOVL3
  pIC50: ~6.47
[1]
  liver level: 50 µM
  plasma level: 30 µM
MRCS human fibroblasts; at the antiviral doses tested
  toxicity on the cells: Without inducing any toxicity

## N=C(N)NCc1cccc([131I])c1 [MIBG, meta-iodo-benzylguanidine]
HCMV AD169 strain; 100 μM, fibroblasts
  inhibition of HCMV replication: 13 fold
[2]; 100 μM
  HCMV-induced accumulation and depletion of lipid droplets: blocked

## CCC(C)[C@@H]1C(=O)/C(=C(/O)[C@@H]2[C@@H]3[C@H](C)C[C@H](C)C[C@@H]3C=C[C@@H]2[C@]2(C)O[C@H]2C)C(=O)N1C (stereo partly drawn) [PF-1052]
HCMV AD169 strain; 5 μM
  reduction of HCMV viral yield: > 50 fold
HCMV AD169 strain; 5 μM, medium replaced daily, 10 days after infection
  reduction of HCMV yield, prolonged treatment: > 5000 fold
HCMV AD169 strain; 10 μM
  reduction of HCMV viral yield: > 300 fold
HCMV AD169 strain
  effect on HCMV replication / yield, in words: profoundly inhibits
HSV-1
  effect on HSV-1 growth, in words: substantially inhibited
[3]
  effect on influenza A growth, in words: substantially inhibited
Adenovirus type 5
  effect on adenovirus replication, in words: not and not inhibited
Late viral protein pUL99
  HCMV late pUL99 expression, in words: markedly reduced
Late viral protein pUL99; Human betaherpesvirus 5, 10 μM, read-out: inhibition of HCMV late protein synthesis
  inhibition at 10 µM: > 99%
[4]; 5 μM
  inhibition of release of infectious HCV particles: 10 fold
[4]; 10 μM
  inhibition of release of infectious HCV particles: > 100 fold
MRCS human fibroblasts; 5 and 10 μM
  host cell toxicity by light microscopy: no evidence of host cell toxicity

## CCCCCCCCN1CCc2c(C)c(CC(=O)O)c(C)c(NC(=O)C(C)(C)C)c21 [Pactimibe]
Liver ACAT
  pIC50: 6.51

## CCCCn1c(=O)c(NC(=O)Nc2c(C(C)C)cc(N)cc2C(C)C)c(-c2cccc(OCCCO)c2)c2cccnc21 [SMP-797]
ACAT
  pIC50: 7.51

## CC(C)=CCc1c([C@H](O)C2OC2(C)C)ccc2[nH]c3c(c12)C[C@@H]1CC[C@@]2(O)C(C)(C)C(=O)CC[C@]2(C)[C@@]31C (stereo partly drawn) [Sespendole]
Liquid Droplet
  pIC50: 5.40

## CCC(C)[C@@H]1C(=O)C2(C[C@@H]3[C@@H]4[C@H](C)C[C@H](C)C[C@@H]4C=C[C@@H]3[C@](C)(O)[C@H]2C)C(=O)N1C (stereo partly drawn) [Spylidone]
Liquid Droplet
  pIC50: 4.38

## CC(C)=C[C@H]1O[C@H]2[C@H]3O[C@@]34[C@H](CC[C@@]3(C)[C@@]4(O)CC[C@H]4Cc5c([nH]c6ccccc56)[C@@]43C)O[C@@H]2C(C)(C)O1 [Terpendole C]
Liquid Droplet
  pIC50: 5.60

## CC(=O)Nc1nnc(S(N)(=O)=O)s1 [acetazolamide]
HCMV AD169 strain; Human betaherpesvirus 5, AD169, Fibroblast, read-out: inhibition of HCMV replication
  inhibition at 25 µM: ~80%

## O=C(Nc1ccc(C(F)(F)F)cc1)N1C2CCC1CC(S(=O)(=O)c1ccccn1)C2 (stereo not drawn) [endo-1w]
hELOVL6; read-out: hELOVL6 IC50
  pIC50: ~7.11
hELOVL6; read-out: human ELOVL6 IC50
  pIC50: ~5.16

## COC(=O)c1c2c(c3ccccc3c1O)OC(C)(C)C=C2 [rubimaillin]
HCMV AD169 strain; 5 μM
  decrease in HCMV virus titer: approximately 85%
HCMV AD169 strain; 10 μM
  reduction of HCMV replication: > 80%

## CCC(C)(C)C(=O)O[C@H]1C[C@@H](C)C=C2C=C[C@H](C)[C@H](CC[C@@H]3C[C@@H](O)CC(=O)O3)[C@H]21 [simvastatin]
HCMV AD169 strain; 5 μM
  decrease in HCMV virus titer: approximately 90%

## CCC/C=C/C/C=C/C=C/C=N/NN=O [triacsin C]
HCMV AD169 strain; 50 nM, presence of serum
  reduction of yield of infectious HCMV: > 8 fold
HCMV AD169 strain; 250 nM, added with virus, 96 h, 10% serum
  reduction of yield of infectious HCMV, factor: 85
HCMV AD169 strain
  effect on HCMV replication / yield, in words: substantially inhibited
HCMV AD169 strain; nanomolar concentrations
  inhibition of HCMV replication: > 10 fold
HSV-1
  effect on HSV-1 growth, in words: substantially inhibited
HSV-1; nanomolar concentrations
  inhibition of HSV-1 replication: > 10 fold
[3]
  effect on influenza A growth, in words: substantially inhibited
[3]; nanomolar concentrations
  inhibition of influenza A replication: > 10 fold
Adenovirus type 5
  effect on adenovirus replication, in words: not
[2]; 100 nM
  depletion of lipid droplets: > 90%
[2]; 250 nM
  lipid droplets by oil red O staining: no detectable lipid droplets
[2]; HFF cells
  lipid droplet formation induced by HCMV infection: reduced lipid droplet formation
[5]
  pIC50: 7.00
[6]
  pIC50: 6.72
ACSLs
  pIC50: ~5.06
atherosclerosis; LDLR-/- mice
  progression of atherosclerosis: significantly inhibited
atherosclerosis; mice
  toxicities: no significant toxicities noted
[4]; indicated amounts of drug, 72 h
  release of infectious HCV particles, in words: significantly reduced
MRCS human fibroblasts; 50 nM, presence of serum
  viability of MRC-5 fibroblasts: without discrenably impacting
MRCS human fibroblasts; 100 or 250 nM, 10% fetal calf serum
  appearance of cells: did not alter the appearance of cells
MRCS human fibroblasts; absence of fetal calf serum, doses up to 10 μM
  cell viability: no discernable impact
MRCS human fibroblasts; doses of ≦500 nM, 10% fetal calf serum
  cell viability: little effect
MRCS human fibroblasts; ≦500 nM, 10% fetal calf serum
  appearance of cells: some cell rounding

## CC(c1cc2ccccc2s1)N(O)C(N)=O (stereo not drawn) [zileuton]
HCMV AD169 strain; 100 μM
  reduction of HCMV replication: ~90%

## STX6 (sense CAAGUUGUCAGGGACAUGATT; antisense UCAUGUCCCUGACAACUUGTT; chemistry not given here)
HCMV
  Fold reduction of HCMV replication: 1.92 fold

## STX8 (sense GACUACUUCUGGCAUCCUUTT; antisense AAGGAUGCCAGAAGUAGUCTT; chemistry not given here)
HCMV
  Fold reduction of HCMV replication: 1.96 fold
